Results: patent US20040224884A1, “Methods of screening for apoptosis-controlling agents for bone anabolic therapies and uses thereof” (priority 1998, published 2004)
Several values for one entry are separate records, joined by “and”; a condition that tells them apart may be missing. Equal values may be shown once.

Columns and labels:
[1] = Vertebral compression strength of fifth lumbar vertebrae (L5); format: in vivo, mice; conditions: 2000 ng/g body weight for 28 days
Procedure: In a representative experiment of this sort, seven 4-5 month old female mice per group-are screened twice for BMD in a four week period immediately prior to the initiation of the experiment to establish that peak adult bone mass has been attained. A subset of mice are then ovariectomized. Intact and ovariectomized mice are treated with vehicle, or 20, 200 or 2000 ng/g body weight estratriene-3-ol or another ANGEL compound. […] Ultimate load bearing properties of the fifth lumbar murine vertebrae (L5) is determined. This is done using a servohydraulic axial-torsional material testing machine (Model MTS 810 Bionx; MTS Systems Corp., Eden Prairie, Minn.) and a Lebow load cell (Eaton Products, Troy, Mich.). Data are recorded and analyzed using the LabVIEW software package and an acquisition/signal conditioning board (Model NB-MIO-16, National Instruments Corporation, Austin, Tex.). The L5 specimens that is used for ultimate load bearing is cleaned of surrounding soft tissue and the length and diameter recorded with a digital caliper at a resolution of 0.01 mm (Mitutoyo Model #500-196, Ace Tools, Ft. Smith, Ariz.). […] Vertebrae are individually compressed between parallel loading platens along the cephalocaudad axis until failure and the ultimate load (in Newtons) and displacement (in mm) are recorded. […]

[2] = tested on: wild type HeLa cells; experiment: Etoposide-induced apoptosis in wild type HeLa cells; format: cell-based, human; conditions: 10^−8 M, 1 h; etoposide 5×10^−5 M, 6 hour
Excerpt: CMV promoter alone and CMV promoter-driven cDNA for mERα or mErβ were stably transfected into HeLa cells. […] Cells were trypsinized, pelleted and trypan blue positive cells enumerated.
In this experiment, instead of calvaria cells, human HeLa cells which contain undetectable, if any, estrogen receptor were used. HeLa cells were stably transfected with either a CMV promoter-driven cDNA for the murine estrogen receptor-alpha (mERα) or a CMV promoter-driven cDNA for the murine estrogen receptor-beta (mERβ). […] Cells were trypsinized, pelleted and trypan blue positive cells were enumerated.

[3] = BMD by dual-energy x-ray absorptiometry in intact or ovariectomized mice; format: in vivo; parameters: global 1 BMD / hindquart BMD (1) / spine 1 BMD / global 2 BMD / hindquart BMD (2) / spine 2 BMD / global 1 BMD (mean) / hindquart BMD (1) (mean) / spine 1 BMD (mean) / global 2 BMD (mean) / hindquart BMD (2) (mean) / spine 2 BMD (mean): unit not given here; conditions: for Global BMD: 2000 ng/g body weight for 28 days; for global 2 BMD / hindquart BMD (2) / spine 2 BMD / global 2 BMD (mean) / hindquart BMD (2) (mean) / spine 2 BMD (mean): 2000 ng/g for 28 days, end of experiment; for global 2 BMD / hindquart BMD (2) / spine 2 BMD / global 1 BMD / hindquart BMD (1) / spine 1 BMD: individual animals; for global 1 BMD / hindquart BMD (1) / spine 1 BMD / global 1 BMD (mean) / hindquart BMD (1) (mean) / spine 1 BMD (mean): 2000 ng/g group, day 0 (initial)
Procedure: In a representative experiment of this sort, six 4-5 month old female mice per group are screened twice for BMD in a four week period immediately prior to the initiation of the experiment to establish that peak adult bone mass has been attained. A subset of mice are then ovariectomized. Intact and ovariectomized mice are treated with vehicle, or 20, 200 or 2000 ng/g body weight estratriene-3-ol or another test compound.
Stock solutions of the test agents (10,000 μg/ml) are maintained in approximately 2.0 ml of 95% ethanol. These stocks are diluted in 95% ethanol to make 1000 μg/ml and 100 μg/ml concentrations. The concentration of the stocks is checked spectrophotometrically. For each animal injection, the test agent is diluted in sesame oil and sonicated. Test agents are administered for 28 days by subcutaneous injections on alternative days. The mice are weighed weekly and serum samples are collected at appropriate times for analysis of bone biochemical markers, such as osteocalcin or collagen cross-links. Tetracycline labeling is performed by administration of the antibiotic (30 mg/kg) at 2 and 8 days prior to the end of each experiment.
During the 28 day experiment, BMD is determined in live animals at day 0, 14 and 28. Following animal sacrifice at the end of the experiment, the vertebral bones L1-L4 are collected for fixation and embedded undecalcified in methyimethacrylate plastic for the determination of the prevalence of osteoblast and osteocyte apoptosis and other static and dynamic histomorphometric measurements. L5 vertebrae are isolated for determining anti-fracture efficacy of the compounds by assaying compression, 3 point bending and other appropriate biomechanical tests. Results confirming the expected efficacy of these compounds show decreased prevalence of osteoblast and/or osteocyte apoptosis, and/or positive BMD changes, and/or increased cancellous bone area, and/or increased rate of bone formation, and/or increased biomechanical strength.
As an example, the results of an experiment whereby 2000 ng/g body weight of estratriene-3-ol was administered for 28 days to estrogen-replete (intact) or estrogen-deficient (ovariectomized) mice are shown in Table 2.
Each row represents values for individual animals. The first three sets of numbers represent the initial BMD measurements (by dual-energy x-ray absorptiometry with Hologic QDR2000 plus, using customized software) at day 0 and the last three BMD measurements at the end of the experiment. Global=BMD of the entire skeleton minus the head and tail; hindquarters=the mean BMD of both hindlimbs; spine=the BMD of cervical, thoracic and lumbar spine.

For `C[C@@]12CCC[C@H]1[C@@H]1CCc3cc(O)ccc3[C@H]1CC2` [estratriene-3-ol], the “Vertebral Compression” value ([1]; Ovx mice, p < 0.00001) was 85.57 ± 10.17 Newtons, the “Vertebral Compression” value ([1]; intact mice, p < 0.006) was 96.26 ± 15.92 Newtons and the “effect on etoposide-induced apoptosis of wild type HeLa cells” value [2] was “none of the three compounds had any effect”. The “Global BMD” value ([3]; Ovx mice, p < 0.00001) was 0.0555 ± 0.0011 g/cm2, the “global 2 BMD” value ([3]; Ovx mice) was 0.0565 and 0.0557 and 0.0548 and 0.0545 and 0.0564 and 0.0568 and 0.0550 and 0.0539 and the “hindquart BMD (2)” value ([3]; Ovx mice) was 0.0602 and 0.0632 and 0.0599 (2×) and 0.0624 and 0.0598 and 0.0647 and 0.0630. The “spine 2 BMD” value ([3]; Ovx mice) was 0.0608 and 0.0585 and 0.0584 and 0.0598 and 0.0610 and 0.0625 and 0.0578 and 0.0605, the “global 2 BMD (mean)” value ([3]; Ovx mice) was 0.0555 and the “hindquart BMD (2) (mean)” value ([3]; Ovx mice) was 0.0618. The “spine 2 BMD (mean)” value ([3]; Ovx mice) was 0.0599, the “global 1 BMD” value ([3]; Ovx mice) was 0.0505 and 0.0542 and 0.0496 and 0.0540 and 0.0526 and 0.0569 and 0.0565 and 0.0528 and the “hindquart BMD (1)” value ([3]; Ovx mice) was 0.0527 and 0.0588 and 0.0504 and 0.0596 and 0.0547 and 0.0604 and 0.0591 and 0.0582. For the same compound, the “spine 1 BMD” value ([3]; Ovx mice) was 0.0547 and 0.0581 and 0.0542 and 0.0586 and 0.0580 and 0.0628 and 0.0603 and 0.0568, the “global 1 BMD (mean)” value ([3]; Ovx mice) was 0.0534 and the “hindquart BMD (1) (mean)” value ([3]; Ovx mice) was 0.0573. For the same compound, the “spine 1 BMD (mean)” value ([3]; Ovx mice) was 0.0579, the “Global BMD” value ([3]; intact mice, p < 0.002) was 0.0554 ± 0.0015 g/cm2 and the “global 2 BMD” value ([3]; intact mice) was 0.0550 and 0.0543 and 0.0541 and 0.0568 (2×) and 0.0537 and 0.0574. The “hindquart BMD (2)” value ([3]; intact mice) was 0.0585 and 0.0603 and 0.0619 and 0.0629 and 0.0640 and 0.0554 and 0.0605, the “spine 2 BMD” value ([3]; intact mice) was 0.0602 and 0.0604 and 0.0601 and 0.0613 and 0.0620 and 0.0588 and 0.0632 and the “global 2 BMD (mean)” value ([3]; intact mice) was 0.0554. The “hindquart BMD (2) (mean)” value ([3]; intact mice) was 0.0605, the “spine 2 BMD (mean)” value ([3]; intact mice) was 0.0609 and the “global 1 BMD” value ([3]; intact mice) was 0.0486 and 0.0511 and 0.0543 and 0.0537 and 0.0533 and 0.0521 and 0.0560. The “hindquart BMD (1)” value ([3]; intact mice) was 0.0509 and 0.0565 and 0.0605 and 0.0577 and 0.0546 and 0.0544 and 0.0587, the “spine 1 BMD” value ([3]; intact mice) was 0.0511 and 0.0560 and 0.0593 and 0.0584 and 0.0571 and 0.0555 and 0.0623 and the “global 1 BMD (mean)” value ([3]; intact mice) was 0.0527. The “hindquart BMD (1) (mean)” value ([3]; intact mice) was 0.0562 and the “spine 1 BMD (mean)” value ([3]; intact mice) was 0.0571.
